Experimental data reported in patent US7611856B2 (priority 2003, dated 2009).

Test system: BoNT
Format: biochemical, Clostridium botulinum

(SNRTRIDQGNQRATRNleL)4K2KC(beta)A [Substrate 39]
specific turnover over unspecific protease background cleavage reactions: shown to increase the specific turnover
